Molecules are shown by their SMILES.

What is called IC50 is the concentration that inhibits the measured activity by half.

The experiment concerns the target PDE1A (Homo sapiens, UniProt P54750). Briefly: PDE1A dose response, Cyclic Nucleotide Phosphodiesterase Assay Kit from Biomol (colorimetric). Type of experiment: biochemical. To be noted: purified PDE1A enzyme, 100 μM cAMP. The source says:
For the dose response and further screening, we used the Cyclic Nucleotide
Phosphodiesterase Assay Kit from Biomol, a colorimetric, non-radioactive assay. The basis for the assay is the cleavage of cAMP by PDE1A. The 5′AMP is further cleaved into the nucleoside and phosphate by the enzyme 5′-nucleotidase (catnr KI-307). The phosphate released due to enzymatic cleavage is quantified using BIOMOL GREEN™ reagent (catnr AK-111) in a modified Malachite Green assay^1,2. A PDE1A inhibitor will result in a decrease of the signal.
For the enzymatic reaction a mix of 25 μL with purified PDE1A enzyme, 100 μM cAMP, 5′Nucleotidase and the compound is made in a clear 384-plate. The reaction buffer is Tris 20 mM pH 7.4, 4 μg/mL calmodulin, 3 mM MgCl2, 1.5 mM CaCl2, 0.2 mg/mL BSA and 0.001% Brij-35. After an incubation of 45 minutes at 37° C., the reaction is stopped by the addition of 50 μL BIOMOL GREEN™ reagent. After 30 minutes incubation at room temperature, the readout is performed on the Envision (absorption at 615 nm).
All compounds are tested in duplicate starting from […] followed by a 1/3 serial dilution, 8 points (20 μM-6.67 μM-2.22 μM-740 nM-247 nM-82 nM-27 nM-9 nM) in a final concentration of 1% DMSO. As the positive dose response control compound Vardenafil is used. For the calculation of z′ and PIN values 10 μM Vardenafil is used as positive control (100% inhibition) and 1% DMSO as negative control (0% inhibition).
The following compounds have been or can be prepared according to the synthetic methods described above. For the purpose of Table 7 below, PDE1A activity of each compound, which can be determined using the assay methods described herein, is expressed as follows: […]
For `Cc1nn(C(C)(C)C)c2nc(C3CN(C(=O)Nc4ccc5c(c4)OCO5)C3)[nH]c(=O)c12` [Example 1, N-(Benzo[d][1,3]dioxol-5-yl)-3-(1-tert-butyl-3-methyl-4-oxo-4,5-dihydro-1H-pyrazolo[3,4-d]pyrimidin-6-yl)azetidine-1-carboxamide], the IC50 fell in the range of 1 to 100 nM. Next, `CC(C)N1CCN(c2ccc(NC(=O)N3CC(c4nc5c(cnn5C5CCCCC5)c(=O)[nH]4)C3)cc2)CC1` [Example 2, 3-(1-Cyclohexyl-4-oxo-4,5-dihydro-1H-pyrazolo[3,4-d]pyrimidin-6-yl)-N-(4-(4-isopropylpiperazin-1-yl)phenyl)azetidine-1-carboxamide]: 1 to 100 nM; `CN1CCN(c2ccc(NC(=O)N3CC(c4nc5c(cnn5C5CCCCC5)c(=O)[nH]4)C3)cc2)CC1` [Example 3, 3-(1-cyclohexyl-4-oxo-4,5-dihydro-1H-pyrazolo[3,4-d]pyrimidin-6-yl)-N-(4-(4-methylpiperazin-1-yl)phenyl)azetidine-1-carboxamide]: 1 to 100 nM. Next, `Cc1ccc(NC(=O)N2CC(c3nc4c(cnn4C4CCCCC4)c(=O)[nH]3)C2)cc1C` [Example 4, 3-(1-cyclohexyl-4-oxo-4,5-dihydro-1H-pyrazolo[3,4-d]pyrimidin-6-yl)-N-(3,4-dimethylphenyl)azetidine-1-carboxamide]: 1 to 100 nM; `O=C(NCC1CCCCC1)N1CC(c2nc3c(cnn3C3CCCCC3)c(=O)[nH]2)C1` [Example 5, 3-(1-cyclohexyl-4-oxo-4,5-dihydro-1H-pyrazolo[3,4-d]pyrimidin-6-yl)-N-(cyclohexylmethyl)azetidine-1-carboxamide]: 1 to 100 nM. Next, `Cc1nn(C(C)(C)C)c2nc(C3CN(C(=O)Nc4ccccc4)C3)[nH]c(=O)c12` [Example 6, 3-(1-tert-butyl-3-methyl-4-oxo-4,5-dihydro-1H-pyrazolo[3,4-d]pyrimidin-6-yl)-N-phenylazetidine-1-carboxamide]: 1 to 100 nM. On to `CN(C)c1cccc(NC(=O)N2CC(c3nc4c(cnn4C4CCCCC4)c(=O)[nH]3)C2)c1` [Example 7, 3-(1-cyclohexyl-4-oxo-4,5-dihydro-1H-pyrazolo[3,4-d]pyrimidin-6-yl)-N-(3-(dimethylamino)phenyl)azetidine-1-carboxamide], for which the IC50 was in the range of 1 to 100 nM.

On to `O=C(Nc1cccc(Cl)c1)N1CC(c2nc3c(cnn3C3CCCCC3)c(=O)[nH]2)C1` [Example 8, N-(3-chlorophenyl)-3-(1-cyclohexyl-4-oxo-4,5-dihydro-1H-pyrazolo[3,4-d]pyrimidin-6-yl)azetidine-1-carboxamide], for which the IC50 fell in the range of 1 to 100 nM. Next, `CN(C)c1ccc(NC(=O)N2CC(c3nc4c(cnn4C4CCCCC4)c(=O)[nH]3)C2)cc1` [Example 9, 3-(1-cyclohexyl-4-oxo-4,5-dihydro-1H-pyrazolo[3,4-d]pyrimidin-6-yl)-N-(4-(dimethylamino)phenyl)azetidine-1-carboxamide]: 1 to 100 nM. With `O=C(Nc1ccc(N2CCOCC2)cc1)N1CC(c2nc3c(cnn3C3CCCCC3)c(=O)[nH]2)C1` [Example 10, 3-(1-cyclohexyl-4-oxo-4,5-dihydro-1H-pyrazolo[3,4-d]pyrimidin-6-yl)-N-(4-morpholinophenyl)azetidine-1-carboxamide], the IC50 lay within 1 to 100 nM. `O=C(Nc1ccccc1)N1CC(c2nc3c(cnn3C3CCCCC3)c(=O)[nH]2)C1` [Example 11, 3-(1-cyclohexyl-4-oxo-4,5-dihydro-1H-pyrazolo[3,4-d]pyrimidin-6-yl)-N-phenylazetidine-1-carboxamide] came in with an IC50 of 1 to 100 nM. Compound `Cc1nn(C(C)(C)C)c2nc(C3CN(C(=O)Nc4ccc(F)cc4)C3)[nH]c(=O)c12` [Example 12, 3-(1-tert-butyl-3-methyl-4-oxo-4,5-dihydro-1H-pyrazolo[3,4-d]pyrimidin-6-yl)-N-(4-fluorophenyl)azetidine-1-carboxamide] returned an IC50 of 1 to 100 nM. Next, `COc1ccc(NC(=O)N2CC(c3nc4c(cnn4C4CCCCC4)c(=O)[nH]3)C2)cc1` [Example 13, 3-(1-cyclohexyl-4-oxo-4,5-dihydro-1H-pyrazolo[3,4-d]pyrimidin-6-yl)-N-(4-methoxyphenyl)azetidine-1-carboxamide]: 1 to 100 nM; `Cc1nn(C2CCCCC2)c2nc(C3CN(C(=O)Nc4ccccc4)C3)[nH]c(=O)c12` [Example 14, 3-(1-cyclohexyl-3-methyl-4-oxo-4,5-dihydro-1H-pyrazolo[3,4-d]pyrimidin-6-yl)-N-phenylazetidine-1-carboxamide]: 1 to 100 nM. Compound `Cc1nn(C(C)(C)C)c2nc(C3CN(C(=O)NC4CCCCC4)C3)[nH]c(=O)c12` [Example 15, 3-(1-tert-butyl-3-methyl-4-oxo-4,5-dihydro-1H-pyrazolo[3,4-d]pyrimidin-6-yl)-N-cyclohexylazetidine-1-carboxamide] showed an IC50 of 1 to 100 nM. On to `CC(C)(C)n1ncc2c(=O)[nH]c(C3CN(C(=O)Nc4ccc(F)cc4)C3)nc21` [Example 16, 3-(1-tert-butyl-4-oxo-4,5-dihydro-1H-pyrazolo[3,4-d]pyrimidin-6-yl)-N-(4-fluorophenyl)azetidine-1-carboxamide], for which the IC50 was in the range of 1 to 100 nM. To `Cc1nn(C(C)(C)C)c2nc(C3CN(C(=O)NCc4ccc(F)cc4)C3)[nH]c(=O)c12` [Example 17, 3-(1-tert-butyl-3-methyl-4-oxo-4,5-dihydro-1H-pyrazolo[3,4-d]pyrimidin-6-yl)-N-(4-fluorobenzyl)azetidine-1-carboxamide] belongs 1 to 100 nM; to `CC(C)c1ccc(NC(=O)N2CC(c3nc4c(cnn4C4CCCCC4)c(=O)[nH]3)C2)cc1` [Example 18, 3-(1-cyclohexyl-4-oxo-4,5-dihydro-1H-pyrazolo[3,4-d]pyrimidin-6-yl)-N-(4-isopropylphenyl)azetidine-1-carboxamide], 1 to 100 nM. Next, `O=C(Nc1ccc(F)cc1)N1CC(c2nc3c(cnn3C3CCCCC3)c(=O)[nH]2)C1` [Example 19, 3-(1-cyclohexyl-4-oxo-4,5-dihydro-1H-pyrazolo[3,4-d]pyrimidin-6-yl)-N-(4-fluorophenyl)azetidine-1-carboxamide]: 1 to 100 nM; `O=C(Nc1ccc(F)c(F)c1)N1CC(c2nc3c(cnn3C3CCCCC3)c(=O)[nH]2)C1` [Example 20, 3-(1-cyclohexyl-4-oxo-4,5-dihydro-1H-pyrazolo[3,4-d]pyrimidin-6-yl)-N-(3,4-difluorophenyl)azetidine-1-carboxamide]: 1 to 100 nM; `Cc1nn(C2CCCCC2)c2nc(C3CN(C(=O)Nc4ccc(F)cc4)C3)[nH]c(=O)c12` [Example 21, 3-(1-cyclohexyl-3-methyl-4-oxo-4,5-dihydro-1H-pyrazolo[3,4-d]pyrimidin-6-yl)-N-(4-fluorophenyl)azetidine-1-carboxamide]: 1 to 100 nM.

Compound `Cc1nn(C(C)(C)C)c2nc(C3CN(C(=O)NCc4ccccc4)C3)[nH]c(=O)c12` [Example 22, N-benzyl-3-(1-tert-butyl-3-methyl-4-oxo-4,5-dihydro-1H-pyrazolo[3,4-d]pyrimidin-6-yl)azetidine-1-carboxamide] showed an IC50 of 1 to 100 nM. Next, `O=C(NC1CCCCC1)N1CC(c2nc3c(cnn3C3CCCCC3)c(=O)[nH]2)C1` [Example 23, N-cyclohexyl-3-(1-cyclohexyl-4-oxo-4,5-dihydro-1H-pyrazolo[3,4-d]pyrimidin-6-yl)azetidine-1-carboxamide]: 1 to 100 nM. In turn, `Cc1nn(C2CCCCC2)c2nc(C3CN(C(=O)NCc4ccccc4)C3)[nH]c(=O)c12` [Example 24, N-benzyl-3-(1-cyclohexyl-3-methyl-4-oxo-4,5-dihydro-1H-pyrazolo[3,4-d]pyrimidin-6-yl)azetidine-1-carboxamide] yielded an IC50 of 1 to 100 nM. Next, `O=C(Nc1ccc(OC(F)(F)F)cc1)N1CC(c2nc3c(cnn3C3CCCCC3)c(=O)[nH]2)C1` [Example 25, 3-(1-cyclohexyl-4-oxo-4,5-dihydro-1H-pyrazolo[3,4-d]pyrimidin-6-yl)-N-(4-(trifluoromethoxy)phenyl)azetidine-1-carboxamide]: 1 to 100 nM.

In turn, `CC(C)(C)OC(=O)N1CCCC(NC(=O)N2CC(c3nc4c(cnn4C4CCCCC4)c(=O)[nH]3)C2)C1` (stereo not shown) [Example 26, tert-butyl 3-(3-(1-cyclohexyl-4-oxo-4,5-dihydro-1H-pyrazolo[3,4-d]pyrimidin-6-yl)azetidine-1-carboxamido)piperidine-1-carboxylate] gave a 50% inhibitory concentration (IC50) of 1 to 100 nM.

Consider `Cc1nn(C2CCCCC2)c2nc(C3CN(C(=O)NCc4ccc(F)cc4)C3)[nH]c(=O)c12` [Example 27, 3-(1-cyclohexyl-3-methyl-4-oxo-4,5-dihydro-1H-pyrazolo[3,4-d]pyrimidin-6-yl)-N-(4-fluorobenzyl)azetidine-1-carboxamide], for which the IC50 lay in the range of 1 to 100 nM. In turn, `COc1ccc(CNC(=O)N2CC(c3nc4c(c(C)nn4C4CCCCC4)c(=O)[nH]3)C2)cc1` [Example 28, 3-(1-cyclohexyl-3-methyl-4-oxo-4,5-dihydro-1H-pyrazolo[3,4-d]pyrimidin-6-yl)-N-(4-methoxybenzyl)azetidine-1-carboxamide] gave an IC50 of 1 to 100 nM.

Values taken from patent US20090137549A1, “Novel compounds useful for the treatment of degenerative & inflamatory diseases” (priority 2006, published 2009).
